What was measured:
[1] = molecular target: NAD(P)H dehydrogenase [quinone] 1 (Homo sapiens) (UniProt P15559); experiment: Substrate activity at recombinant human C-terminal His-tagged NQO1 (1 to 274 residues) expressed in Escherichia coli assessed as enzyme activity by measuring oxidation of NADPH incubated for 5 mins measured per micromol of enzyme every 5 sec for 1 mins by UV-visible spectrophotometry
HepG2 [2] = experiment: Cytotoxicity against human HepG2 cells assessed as reduction in cell growth pretreated for 1 hr with ROS scavenger, N-acetyl cysteine followed by incubation with compound for 48 hrs by MTT assay; type: functional
HepG2 [3] = experiment: Induction of apoptosis in human HepG2 cells assessed as early apoptotic cells at 1.1 uM incubated for 24 hrs by annexinV-FITC and PI staining based flow cytometry analysis (reference value: 2.65 %); type: functional
HepG2 [4] = experiment: Induction of apoptosis in human HepG2 cells assessed as late apoptotic cells at 2.2 uM incubated for 24 hrs by annexinV-FITC and PI staining based flow cytometry analysis (reference value: 2.27 %); type: functional
HepG2 [5] = experiment: Induction of apoptosis in human HepG2 cells assessed as necrotic cells at 2.2 uM incubated for 24 hrs by annexinV-FITC and PI staining based flow cytometry analysis (reference value: 0.35 %); type: functional
HepG2 [6] = experiment: Induction of apoptosis in human HepG2 cells assessed as late apoptotic cells at 4.4 uM incubated for 24 hrs by annexinV-FITC and PI staining based flow cytometry analysis (reference value: 2.27 %); type: functional
HepG2 [7] = experiment: Induction of apoptosis in human HepG2 cells assessed as early apoptotic cells at 2.2 uM incubated for 24 hrs in presence of dicoumarol by annexinV-FITC and PI staining based flow cytometry analysis (reference value: 2.65 %); type: functional
HepG2 [8] = experiment: Induction of apoptosis in human HepG2 cells assessed as late apoptotic cells at 2.2 uM incubated for 24 hrs in presence of dicoumarol by annexinV-FITC and PI staining based flow cytometry analysis (reference value: 2.27 %); type: functional
HepG2 [9] = experiment: Induction of ROS generation in human HepG2 cells at 5 uM by DCFH-DA staining based flow cytometry analysis; type: functional, cell-based; details: time 3-5 hrs, TDE = time-dependent effect
[10] = Toxicity in athymic nude mouse xenografted with human HepG2 cells assessed as effect on body weight at 10 to 20 mg/kg, iv administered once every 2 days for 19 days; type: organism-based; details: in vivo, 456 h, dose 10-20 mg/kg, time 19 day
[11] = Selectivity index, ratio of GI50 for human L02 cells to GI50 for human HepG2 cells measured after 48 hrs by MTT assay; type: toxicity; details: L02 cells and HepG2 cells, read-out: RatioGI50

In the case of `COc1ccc(C2CC(=O)NC3=C2C(=O)C(=O)c2ccccc23)cc1O` (stereo unspecified), the Activity [1] is reported as 2770 µmol/min, the GI50 (HepG2 [2]) is reported as 5.65 µM and the Activity (HepG2 [3]) is reported as 7.92%. The Activity (HepG2 [4]) was 12.2%, the Activity (HepG2 [5]) was 0.93% and the Activity (HepG2 [6]) was 17.46%. The Activity (HepG2 [7]) was 8.28%, the Activity (HepG2 [8]) was 9.46% and the Activity (HepG2 [9]) was “Tde”. For the same compound, the Activity [10] was “Non-Toxic” and the selectivity ratio at 48 h [11] was 2.

From ChEMBL document CHEMBL4765339, “Design, synthesis, and biological evaluation of 4-substituted-3,4-dihydrobenzo[h]quinoline-2,5,6(1H)-triones as NQO1-directed antitumor agents” (Eur J Med Chem, 2020)
